Data as given in publication PMC12010006, “Subnanomolar MAS-related G protein-coupled receptor-X2/B2 antagonists with efficacy in human mast cells and disease models” (Signal Transduction and Targeted Therapy, 2025).

How the values were obtained:
[1] = tested on: muscarinic acetylcholine receptors (mAChRs); assay: Ca2+ assay versus carbachol in LN229-MRGPRX2 cell line; format: cell-based, human; settings: 10 µM, carbachol 100 µM
[2] = tested on: IgE-mediated degranulation; assay: IgE-mediated degranulation (DNP-BSA) of RBL-MRGPRX2 cells sensitized with DNP-specific IgE; format: cell-based, rat; settings: 0.1 and 0.3 µM; DNP-BSA 10 and 30 ng/mL
Method: Having a competitive MRGPRX2 antagonist with subnanomolar potency in hand, we next studied its effects on MCs. Activation of MRGPRX2, which is highly expressed in skin MCs, results in degranulation and histamine release.[19] We therefore investigated whether PSB-172656 inhibits MRGPRX2-mediated MC activation utilizing the rat MC line RBL-2H3 recombinantly expressing the human MRGPRX2 (designated RBL-MRGPRX2). These cells were treated with two different concentrations of PSB-172656 (100 nM and 300 nM), and then exposed to different MRGPRX2 agonists, namely C48/80 (0.3 µg/mL), SP (0.3 µM), and PAMP-12 (0.1 µM), respectively. Degranulation of the cells was assayed by β-hexosaminidase release measurements.
Fig. 5 PSB-172656 blocks MRGPRX2-induced mast cell degranulation without affecting IgE-mediated responses. a RBL-MRGPRX2 cells were incubated with control (vehicle) or preincubated with PSB-172656 (100 or 300 nM), followed by stimulation with C48/80 (0.3 µg/mL), substance P (SP; 0.3 µM), or PAMP-12 (0.1 µM), and β-hexosaminidase release was measured. RBL-MRGPRX2 cells were sensitized with monoclonal anti-dinitrophenyl antibody (DNP-specific IgE), and degranulation induced by 2,4-dinitrophenylated bovine serum albumin (DNP-BSA, 10 and 30 ng/mL) was measured without or after preincubation with PSB-172656 (0.1 and 0.3 µM). […] Data are expressed as means ± SEM of 3 biological replicates. […]

Row | SMILES | inhibition of signal induced by carbachol [1] | effect on IgE-mediated degranulation induced by DNP-BSA [2]
1 | CCCc1c(C)[nH]c2nc3ccccc3n2c1=O [Compound 1, 2-methyl-3-propylbenzo[4,5]imidazo[1,2-a]pyrimidin-4(1H)-one] | did not inhibit | –
2 | CCc1c(C(C)C)[nH]c2nc3cc(F)c(F)cc3n2c1=O [Compound 24, 3-ethyl-7,8-difluoro-2-isopropylbenzo[4,5]imidazo [1,2-a] pyrimidin-4(1H)-one] | – | did not inhibit
